In a melting point compilation (Tetko et al.; mined from patent text by program, amines drawn as free bases though some values may be those of a salt) one finds melting point data, which are given here for 86 molecules.

As usually defined, the melting point is the temperature of the solid-liquid transition. With `CC1CCN(C(=O)C(Cc2cc3c(N)nccc3s2)NS(=O)(=O)c2ccc(COC3CCOCC3)cc2)CC1` (stereo unspecified), the melting point lay in the range of 124 to 128 °C.

`CC(=O)OC1CSC(Oc2cccnc2-c2ccc(C)o2)C(OC(C)=O)C1OC(C)=O` (stereo unspecified) returned a melting point of 128 °C.

As to `O=C(O)CN1C(=O)[C@@H](N[C@@H](CCC2CCCCC2)C(=O)O)COc2ccccc21`, the melting point was 202 to 205 °C.

Turning to `CC1(C)CC(C)(C)CC2(CCCC(=O)N2)C1`, the melting point was in the range of 126 to 128 °C.

Regarding `Cc1cc(C)c2cc(-c3ccccc3)c(=O)[nH]c2n1`, the melting point is 258 to 260 °C.

For the molecule `COC(=S)NCc1cn(-c2ccc(-n3ccc(C=O)c3)cc2)nn1`, the melting point was 160 to 162 °C.

`CC(C)(N)CNC(=O)Nc1ccccc1` registered a melting point of 130 to 131 °C.

`C=Cc1cc(S(=O)(=O)c2ccc(N)cc2)cc(N2CCCC2)n1` showed a melting point of 181 to 182 °C.

`O=C(O)c1cc(Cl)cc2c1CCCC2` had a melting point of 130 to 140 °C.

With `CC(=O)NCc1c(C)cc(CN2CCN(c3ccccc3)CC2)cc1C`, the melting point lay in the range of 159 to 160 °C.

Take `O=C1Nc2ccc(F)cc2C(C#CC2CC2)(C(F)(F)F)N1` (racemic): the melting point was 155 °C.

`O=S(=O)(NCC(O)(Cn1cncn1)c1ccc(Cl)cc1Cl)c1cc(Cl)ccc1Cl` (stereo unspecified) registered a melting point of 173 to 174 °C.

In turn, `COCCOc1ccc(COC(=O)NS(=O)(=O)CCC(C)C)c(Oc2ncc(C(F)(F)F)cc2Cl)c1` registered a melting point of 122 to 124 °C.

The molecule `CN1CCOc2cc(S(=O)(=O)n3c(CCC(=O)O)cc4nc(Cl)ccc43)ccc21` yielded a melting point of 175 to 185 °C.

The molecule `O=C(O)Cc1ccc(OCCNC(=O)C2Cc3ccccc3N2S(=O)(=O)c2ccc(-c3cc(C(F)(F)F)ccc3Cl)cc2)c(Cl)c1` (stereo unspecified) showed a melting point of 108 to 112 °C.

The molecule `O=C(O)Cc1ccc(NC(=O)C(COc2cccnc2)NS(=O)(=O)c2ccc(Br)cc2)cc1` (racemic) displayed a melting point of 205 to 207 °C.

Molecule `CC(C)n1nc(-c2sc(C(=O)N(C)C)nc2-c2ccccc2)ccc1=O` returned a melting point of 141 to 144 °C.

As to `O=C1NC(=O)C2(CCOc3c([N+](=O)[O-])cc(F)cc32)S1` (stereo unspecified), the melting point was in the range of 192 to 194 °C.

For the molecule `COc1ccccc1C1=CC(C)(C)Oc2ccc(C#N)cc21`, the melting point lay within 109 to 111 °C.

Take `O=C(O)c1nc2ccccc2n(Cc2ccccc2)c1=O`: the melting point lay within 149 to 150 °C.

The molecule `C=CC1=C(C)c2cc3[nH]c(cc4nc(cc5[nH]c(cc1n2)c(C)c5CCC(=O)OCCN(C)C)C(CCC(=O)OCCN(C)C)=C4C)c(C)c3C=C` returned a melting point of 187 to 191 °C.

`CNn1c(C)nn(C(=O)NC(C)(C)CCl)c1=O`: the melting point came to 93 °C.

Molecule `O=C1c2ccccc2C(=O)c2c(NC(=O)[C@@H]3C[C@H]3c3ccccc3)ccc(NC(=O)[C@@H]3C[C@H]3c3ccccc3)c21` (relative stereo) came in with a melting point of 272 to 274 °C.

As to `COC(=O)c1cc2scc(Br)c2nc1C(=O)OC`, the melting point lay within 165 to 168 °C.

Regarding `CC(=O)c1cn(C)c2ccc(F)cc12`, the melting point lay in the range of 158 to 160 °C.

`O=S(=O)(Nc1cccc(CC2Cc3ccc(OCc4nc5cc(F)c(F)cc5s4)cc3C2O)c1)C(F)(F)F` (stereo unspecified) gave a melting point of 170 to 172 °C.

The molecule `COC(=O)[C@@]1(C)Cc2c([nH]c3ccc(OC)cc23)[C@@H](c2cccc(O)c2)N1` (racemic) had a melting point of 175 to 177 °C.

Take `CC(C)(C)OC(=O)NCCNC(=O)c1csc(Cl)n1`: the melting point is 127 to 129 °C.

With `Cc1nc(N2CCN(Cc3ccccc3)C2=O)sc1C(=O)NCc1ccc(F)cc1`, the melting point fell in the range of 147 to 148 °C.

With `O=P(c1ccccc1)(c1ccccc1)c1nnc(P(=O)(c2ccccc2)c2ccccc2)c2ccccc12`, the melting point fell in the range of 225 to 228 °C.

`Cc1cccc(NC(=O)CN2CCN(c3ncccn3)CC2)c1` had a melting point of 113 to 116 °C.

`Cc1cc(C)c2cc(N)c(=O)[nH]c2n1`: the melting point was in the range of 238 to 240 °C.

The molecule `CCOC(=O)c1sc(-c2ccccc2)nc1O` had a melting point of 114 to 116 °C.

The molecule `CCC(C)(C)Nc1c(NCc2cc(C)cc(C)c2)c(=O)c1=O` had a melting point of 222 to 224 °C.

In turn, `COc1cc(O)c2c(c1)[C@H]1CN(C)CC[C@@H]1CC2=O` (relative stereo) registered a melting point of more than 250 °C.

Consider `O=C(/C=C/c1ccc(Br)cc1)/C=C/c1ccc(Br)cc1`, for which the melting point fell in the range of 211 to 213 °C.

The molecule `CC(C)(C)OC(=O)N[C@@H](Cc1ccc(-c2ccc(F)cc2)cc1)C(=O)OCc1ccccc1` returned a melting point of 103 to 104 °C.

As to `CCCCCCCCCCCCCCCCCCNC(=O)SCC(CO)OC` (stereo unspecified), the melting point fell in the range of 62 to 63 °C.

`O=C(O)C1=Cc2cc(C(=O)c3ccc(Cl)cc3)ccc2OC1C(F)(F)F` (stereo unspecified) showed a melting point of 268 to 269 °C.

`COc1cc(Cl)cnc1OCC#Cc1cc(Cl)ccn1` displayed a melting point of 129 °C.

`CC(=O)OC1CSC(Sc2ccc3ccccc3c2)C(OC(C)=O)C1OC(C)=O` (stereo unspecified) registered a melting point of 151 °C.

Regarding `CC1(C)OC(=O)Nc2c(F)cc(-c3csc(C#N)c3)cc21`, the melting point lay within 250 to 251 °C.

`CC(CCC(O)CO)=Nc1ncnc2c1ncn2C1OC(CO)C(O)C1O` (stereo unspecified) yielded a melting point of 102 to 104 °C.

`C=C(OCCCC)c1ccc(NC(C)=O)nc1`: the melting point lay within 55 to 58 °C.

For `OC(CNCc1ccccc1)c1cc(C(F)(F)F)nc2c(C(F)(F)F)cccc12` (stereo unspecified), the melting point is 138 to 139 °C.

The molecule `O=C(O)c1ccc2c(c1)S(=O)(=O)c1ccc(Cl)cc1C=C2` gave a melting point of 276 to 278 °C.

`COc1c(C=C[N+](=O)[O-])cc2c(c1OC)CCC2` registered a melting point of 104 °C.

Consider `CC1(C)CC(N=[N+]=[N-])c2cc(C#N)ccc2O1` (stereo unspecified), for which the melting point lay within 63 to 64 °C.

In the case of `Cc1ccc(C2CCN(C(=O)Nc3ccc4nc(CN5C(C)(C)CCCC5(C)C)ccc4c3)CC2)cc1`, the melting point was 200 to 202 °C.

The molecule `CC(C)C[C@H](NC(=O)N1CCOCC1)C(=O)N[C@@H](CCc1ccccc1)C(=O)c1oc(-c2ccccc2)nc1-c1ccccc1` registered a melting point of 83 to 85 °C.

Molecule `COCCN1CC(C(=O)OC)N(S(=O)(=O)c2ccc(OC)cc2)Cc2ccccc21` (stereo unspecified) came in with a melting point of 86 to 90 °C.

`O=C(NCCN1CCC(Oc2ccc(F)cc2Cl)CC1)c1ccc(-n2cccn2)nc1` yielded a melting point of 109 to 110 °C.

Consider `O=C(CN1CCCC1)Nc1ccc(Br)cc1`, for which the melting point fell in the range of 60 to 63 °C.

Molecule `NC(=O)C(c1ccccc1)N1C(=O)c2ccccc2C1=O` (stereo unspecified) returned a melting point of 218 °C.

Regarding `CCOC(=O)c1cn(NCC=O)c2c(OCc3ccccc3)c(F)c(F)cc2c1=O`, the melting point is 180 to 181 °C.

On to `Fc1ccc(C(c2ccc(F)c(F)c2)c2ccc(F)c(F)c2)cc1F`, for which the melting point was 95 to 96 °C.

`CCCS(=O)(=O)c1ccc(NS(=O)(=O)c2cccs2)c2[nH]c(C(=O)OCC)cc12` gave a melting point of 201 to 202 °C.

On to `O=C(Cl)N1CC(Oc2ccc(Br)cc2)C1`, for which the melting point was in the range of 77 to 78 °C.

Molecule `COC(=O)CCC(C(=O)c1cccc(O)c1)c1ccccc1C` (racemic) registered a melting point of 101 to 103 °C.

Consider `CC(=O)Nc1ccc(C(=O)NCCN2[C@H](C)Cc3ccsc3[C@@H]2C)cc1` (relative stereo), for which the melting point fell in the range of 161 to 162 °C.

Take `CNC(Cc1ccccc1NC(=O)C(C)(C)C)c1ccccc1C` (stereo unspecified): the melting point lay within 77 to 79 °C.

`CP1(=O)c2ccccc2CN1c1ccc(Oc2ccccc2)cc1` (stereo unspecified) returned a melting point of 176 to 177 °C.

Regarding `CN=C(O)c1c(Cl)c(Cl)c(Sc2ccc(C)cc2)c(Cl)c1C(=O)O`, the melting point lay within 209 to 216 °C.

For `COc1nc(SCC(N)c2ncco2)cnc1NS(=O)(=O)c1cccc(Cl)c1Cl` (stereo unspecified), the melting point fell in the range of 168 to 170 °C.

For `NS(=O)(=O)c1ccc(-c2c(COCCCO)n[nH]c2-c2ccc(Cl)cc2)cc1`, the melting point came out at 96 °C.

`CC12C=CCC1C1CCC3=CC(=O)CCC3=C1CC2` (stereo unspecified) showed a melting point of 87 to 92 °C.

Regarding `CCCCOc1cc(C(N)=O)nn1Cc1ccc(Cl)cc1`, the melting point was 137 to 138 °C.

`COc1cc2c(cc1Nc1ncc(Cl)c(Nc3ccccc3S(=O)(=O)N(C)C)n1)CCN(C(=O)C(C)(C)N)CC2` displayed a melting point of 93 to 101 °C.

On to `CCOC(=O)c1cc(C(=O)CBr)c(=O)[nH]c1C(=O)OCC`, for which the melting point is 141 to 142 °C.

`C[C@H](OC(=O)c1ccccc1)[C@@H](O)[C@@H](CO)OCc1ccccc1Cl` came in with a melting point of 80 to 83 °C.

Take `Cc1ccc(OCC=C(Cl)Cl)c(Cl)c1O`: the melting point came out at 70 °C.

`CCNC(=O)C1CCN(c2cc(-c3ccc(Cl)cc3)nc3ccccc23)CC1` displayed a melting point of 231 to 233 °C.

`O=C(O)c1c[n+]([O-])cc2ccccc12` had a melting point of 280 to 283 °C.

In the case of `O=C(O)c1cccc(NCc2cccs2)c1C(=O)O`, the melting point lay within 223 to 225 °C.

In the case of `CCCCC[C@@H](C)C[C@H](CN)CC(=O)O`, the melting point fell in the range of 174 to 175 °C.

`CC(C)(C)OC(=O)[C@H](Cc1ccc(O)cc1)NC(=O)c1c(F)cccc1F` had a melting point of 145 to 148 °C.

The molecule `CCOC(=O)Cn1c(C(=O)NCc2nnc(C)n2-c2sc(CC)cc2C(=O)c2ccccc2Cl)cc2ccccc21` registered a melting point of 138 to 140 °C.

`Oc1ccc(OCCN2CCCCC2)cc1` registered a melting point of 148 to 150 °C.

For the molecule `COc1ccc(CN(C)CCCCc2ccc(NC(=O)c3cccc4c(=O)c5cccc(F)c5[nH]c34)cc2)cc1OC`, the melting point amounted to 131 °C.

Molecule `COC(=O)[C@H](Cc1ccc(O[Si](C)(C)C(C)(C)C)cc1)NC(=O)Nc1n[nH]c(=S)s1` displayed a melting point of 139 to 142 °C.

Regarding `CCN1C(=O)C(C)(C)CCc2c1ccc(Nc1ncc(Cl)c(Nc3ccc(N4CCOCC4)cc3OC)n1)c2OC`, the melting point is 181 to 183 °C.

For `O=C1c2ccc(Br)cc2C(=O)c2ccc(Br)cc21`, the melting point is more than 280 °C.

With `CCC(Cc1ccc(OC)c(CC(=O)Nc2ccc(C(F)(F)F)cc2)c1)C(=O)O` (stereo unspecified), the melting point fell in the range of 136 to 137 °C.

Regarding `Cc1nc(C)c2cc(-c3c(Cl)cccc3Cl)c(N)nc2n1`, the melting point was in the range of 239 to 240 °C.

`Cc1ccc(CSCc2ccc(C)cc2)cc1` displayed a melting point of 74 to 76 °C.

The molecule `O=C(O)C1CCCC2CSc3ccccc3C21` (stereo unspecified) returned a melting point of 200 to 203 °C.
